Results: patent US20080095778A1, “Treatment Of Fungal Infections” (priority 2004, published 2008)
Where two headings read alike, the source gives them in different places.

Assays:
A. fumigatus = assay: Broth microdilution (NCCLS M38-A) checkerboard assay, A. fumigatus; assay type: cell-based, Aspergillus fumigatus; details: for MIC: Aspergillus fumigatus, agent alone, read-out: MIC-2 of each agent, Alone
Protocol: (§1) Stock solutions of amphotericin B (AMB, Sigma), caspofungin (Caspo), voriconazole (VOR) and itraconazole (ITZ) were prepared according to the National Committee for Clinical Laboratory Standards (M38-A) in RPMI 1640 with glutamine broth medium, buffered to pH 7.0 with […] morpholinopropanesulphonic acid (MOPS). AMB stock solutions were prepared as a 100× series in 100% dimethyl sulfoxide (DMSO) and diluted in medium to a concentration range of 0.03125 to 16 μg/ml. Caspofungin, voriconazole and itraconazole were tested at a concentration range of 0.03125 to 1024 μg/ml, and Mycograb® (NeuTec Pharma plc) at a concentration range of 0.25 to 1024 μg/ml.
(§2) Clinical isolates of Aspergillus fumigatus (2), A. flavus (1), A. terreus (1) and A. niger (1) were obtained from the Department on Microbiology, Manchester Royal Infirmary, Manchester, UK.
(§3) An inoculum suspension was prepared in buffered RPMI with glutamine medium by probing colonies from a 7 day old Sabouraud plate. The suspension was adjusted to 0.09-0.11 (80% to 82% transmittance) for Aspergillus species, 0.15-0.17 (68% to 70% transmittance). The inoculum was diluted a further 1:2 when added to the antifungal agents in the assay (final inoculum (0.4×10^4 to 0.5×10^4). For AMB and Mycograb®, either alone or in combination, the endpoint was determined as the concentration to produce no growth (MIC-0). Microtitre plates were incubated at 37° C. without agitation for 48 hours for Aspergillus species. For caspofungin, voriconazole and itraconazole, either alone or in combination with Mycograb® antibody, the MIC endpoint was determined as the concentration resulting in a prominent decrease in turbidity (≧50% growth inhibition, MIC-2) compared to the growth control (Keele et al. 2001; Espinel-Ingroff 2003). The final inhibitory concentration (FIC) was calculated for each drug by dividing the MIC in the presence of the second drug by the MIC in its absence. For each combination, two fractions were produced which were summated to produce the fractional final inhibitory concentration. Synergy was defined by value of ≦0.5, indifference was defined by a value of >0.5 to <4.0, and antagonism was defined by a value of ≧4.0 (Matthews et al., 2003).

A. fumigatus CI2 = assay: Broth microdilution (NCCLS M38-A) checkerboard assay, A. fumigatus CI2; assay type: cell-based, Aspergillus fumigatus; details: for MIC: Aspergillus fumigatus, agent alone, read-out: MIC-2 of each agent, Alone
Protocol: as §1, §2, §3

Aspergillus species = assay: Antifungal activity with Mycograb antibody, summary over the Aspergillus species examined; assay type: cell-based; details: for Antifungal activity / surprising effect when used in combination with Mycograb antibody: summary of Tables 1-4, agent combined with Mycograb antibody
Protocol: as §3

A. terreus = assay: Broth microdilution (NCCLS M38-A) checkerboard assay, A. terreus; assay type: cell-based; details: for MIC: Aspergillus terreus, agent alone, read-out: MIC-2 of each agent, Alone; for FIC: MIC in combination divided by MIC alone
Protocol: as §1, §2, §3

A. niger = assay: Broth microdilution (NCCLS M38-A) checkerboard assay, A. niger; assay type: cell-based; details: for MIC: Aspergillus niger, agent alone, read-out: MIC-2 of each agent, Alone
Protocol: as §1, §2, §3

A. flavus = assay: Broth microdilution (NCCLS M38-A) checkerboard assay, A. flavus; assay type: cell-based; details: for MIC: Aspergillus flavus, agent alone, read-out: MIC-2 of each agent, Alone
Protocol: as §1, §2, §3

[1] = Table 2, ≧50% growth inhibition endpoint
[2] = caspofungin and Mycograb combination
[3] = caspofungin and Mycograb in combination
[4] = Table 3, ≧50% growth inhibition endpoint
[5] = itraconazole and Mycograb combination
[6] = itraconazole and Mycograb in combination
[7] = Table 4, ≧50% growth inhibition endpoint
[8] = voriconazole and Mycograb combination
[9] = voriconazole and Mycograb in combination

CC[C@H](C)C[C@H](C)CCCCCCCCC(=O)N[C@H]1C[C@@H](O)[C@@H](NCCN)NC(=O)[C@@H]2[C@@H](O)CCN2C(=O)[C@H]([C@H](O)CCN)NC(=O)[C@H]([C@H](O)[C@@H](O)c2ccc(O)cc2)NC(=O)[C@@H]2C[C@@H](O)CN2C(=O)[C@H]([C@@H](C)O)NC1=O [Caspo, caspofungin]
MIC (A. fumigatus; [1]): 0.125 µg/mL | FICI (A. fumigatus; [2]): 0.562 | Outcome (A. fumigatus; [2]): Indifferent (indifference was defined by a value of >0.5 to <4.0) | MIC-2 of each agent, Combination (A. fumigatus; [3]): 0.0625 µg/mL | MIC (A. fumigatus CI2; [1]): 0.125 µg/mL | FICI (A. fumigatus CI2; [2]): 0.562 | Outcome (A. fumigatus CI2; [2]): Indifferent (indifference was defined by a value of >0.5 to <4.0) | MIC-2 of each agent, Combination (A. fumigatus CI2; [3]): 0.0625 µg/mL | Antifungal activity / surprising effect when used in combination with Mycograb antibody (Aspergillus species): not observed | MIC (A. terreus; [1]): 0.312 µg/mL | FICI (A. terreus; [2]): 0.312 | Outcome (A. terreus; [2]): Synergy (Synergy was defined by value of ≦0.5) | MIC-2 of each agent, Combination (A. terreus; [3]): 0.078 µg/mL | FIC (A. terreus; caspofungin and Mycograb): 0.25 µg/mL | MIC (A. niger; [1]): 1 µg/mL | FICI (A. niger; [2]): 0.125 | Outcome (A. niger; [2]): Synergy (Synergy was defined by value of ≦0.5) | MIC-2 of each agent, Combination (A. niger; [3]): 0.125 µg/mL | MIC (A. flavus; [1]): 1 µg/mL | FICI (A. flavus; [2]): 0.500 | Outcome (A. flavus; [2]): Indifferent (indifference was defined by a value of >0.5 to <4.0) | MIC-2 of each agent, Combination (A. flavus; [3]): 0.5 µg/mL

CCC(C)n1ncn(-c2ccc(N3CCN(c4ccc(OCC5COC(Cn6cncn6)(c6ccc(Cl)cc6Cl)O5)cc4)CC3)cc2)c1=O (stereo not drawn) [ITZ, itraconazole]
MIC (A. fumigatus; [4]): 0.5 µg/mL | FICI (A. fumigatus; [5]): 0.0781 | Outcome (A. fumigatus; [5]): Synergy (Synergy was defined by value of ≦0.5) | MIC-2 of each agent, Combination (A. fumigatus; [6]): 0.0312 µg/mL | MIC (A. fumigatus CI2; [4]): 0.5 µg/mL | FICI (A. fumigatus CI2; [5]): 0.2578 | Outcome (A. fumigatus CI2; [5]): Synergy (Synergy was defined by value of ≦0.5) | MIC-2 of each agent, Combination (A. fumigatus CI2; [6]): 0.125 µg/mL | MIC (A. terreus; [4]): 0.125 µg/mL | FICI (A. terreus; [5]): 0.281 | Outcome (A. terreus; [5]): Synergy (Synergy was defined by value of ≦0.5) | MIC-2 of each agent, Combination (A. terreus; [6]): 0.0312 µg/mL | FIC (A. terreus; itraconazole and Mycograb): 0.25 µg/mL | MIC (A. niger; [4]): 0.125 µg/mL | FICI (A. niger; [5]): 0.375 | Outcome (A. niger; [5]): Synergy (Synergy was defined by value of ≦0.5) | MIC-2 of each agent, Combination (A. niger; [6]): 0.0156 µg/mL | MIC (A. flavus; [4]): 0.125 µg/mL | FICI (A. flavus; [5]): 0.25 | Outcome (A. flavus; [5]): Synergy (Synergy was defined by value of ≦0.5) | MIC-2 of each agent, Combination (A. flavus; [6]): 0.0312 µg/mL

C[C@@H](c1ncncc1F)[C@](O)(Cn1cncn1)c1ccc(F)cc1F [VOR, voriconazole]
MIC (A. fumigatus; [7]): 0.0625 µg/mL | FICI (A. fumigatus; [8]): 0.5 | Outcome (A. fumigatus; [8]): Synergy (Synergy was defined by value of ≦0.5) | MIC-2 of each agent, Combination (A. fumigatus; [9]): 0.0312 µg/mL | MIC (A. fumigatus CI2; [7]): 0.25 µg/mL | FICI (A. fumigatus CI2; [8]): 0.5 | Outcome (A. fumigatus CI2; [8]): Synergy (Synergy was defined by value of ≦0.5) | MIC-2 of each agent, Combination (A. fumigatus CI2; [9]): 0.125 µg/mL | Antifungal activity / surprising effect when used in combination with Mycograb antibody (Aspergillus species): surprisingly high level of antifungal activity against all the species examined except for A. niger | MIC (A. terreus; [7]): 0.25 µg/mL | FICI (A. terreus; [8]): 0.5 | Outcome (A. terreus; [8]): Synergy (Synergy was defined by value of ≦0.5) | MIC-2 of each agent, Combination (A. terreus; [9]): 0.125 µg/mL | FIC (A. terreus; voriconazole and Mycograb): 0.5 µg/mL | MIC (A. niger; [7]): 0.125 µg/mL | FICI (A. niger; [8]): 2 | Outcome (A. niger; [8]): Indifferent (indifference was defined by a value of >0.5 to <4.0) | MIC-2 of each agent, Combination (A. niger; [9]): 0.125 µg/mL | MIC (A. flavus; [7]): 0.25 µg/mL | FICI (A. flavus; [8]): 0.25 | Outcome (A. flavus; [8]): Synergy (Synergy was defined by value of ≦0.5) | MIC-2 of each agent, Combination (A. flavus; [9]): 0.0625 µg/mL

CC[C@@H]([C@H](C)O)n1ncn(-c2ccc(N3CCN(c4ccc(OC[C@@H]5CO[C@@](Cn6cncn6)(c6ccc(F)cc6F)C5)cc4)CC3)cc2)c1=O [posaconazole]
Synergy with antibody specific for Aspergillus hsp90 epitope (Aspergillus species; preliminary results): capable of achieving similar synergistic results
